From ChEMBL document CHEMBL1909046, “DrugMatrix in vitro pharmacology data” come the findings set out here.

Usually IC50 stands for the concentration that gives 50% inhibition. The term Ki denotes a dissociation constant, usually derived from enzyme kinetics or from competition with a known ligand.

A short description of assay [1]: DRUGMATRIX: Glutamate, NMDA, Phencyclidine radioligand binding (ligand: [3H] TCP). The format is cell membranes, Rattus norvegicus, Wistar, Cerebral cortex, Membrane. The settings on record: Not Active = under 50% inhibition at 10 µM.
Assay [2] has as its target Vascular endothelial growth factor receptor 1 (Homo sapiens, UniProt P17948). The assay is described as follows: biochemical. The class given is cell-based, HUVEC. Further: in other assays of this panel Not Active means under 50% inhibition at 10 µM.
The target in assay [3] is T1, Alpha-2A adrenergic receptor (Homo sapiens, UniProt P08913). Further: in other assays of this panel Not Active means under 50% inhibition at 10 µM.
T1 sequence (P08913 whole entry): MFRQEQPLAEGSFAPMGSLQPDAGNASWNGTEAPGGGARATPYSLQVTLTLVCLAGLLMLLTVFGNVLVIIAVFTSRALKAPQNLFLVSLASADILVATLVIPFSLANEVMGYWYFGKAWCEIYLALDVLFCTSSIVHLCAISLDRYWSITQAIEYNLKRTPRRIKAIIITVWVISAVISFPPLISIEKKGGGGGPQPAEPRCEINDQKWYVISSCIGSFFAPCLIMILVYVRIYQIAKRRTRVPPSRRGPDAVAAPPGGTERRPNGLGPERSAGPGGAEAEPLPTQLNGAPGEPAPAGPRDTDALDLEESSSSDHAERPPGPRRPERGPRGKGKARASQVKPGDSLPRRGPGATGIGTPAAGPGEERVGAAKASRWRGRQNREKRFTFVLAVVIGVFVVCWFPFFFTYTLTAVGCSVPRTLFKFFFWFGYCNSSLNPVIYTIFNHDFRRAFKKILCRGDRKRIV
The format is cell membranes, Sf9, Membrane. The settings on record: for Ki: read-out: Ki.

Assay [4] can be described thus: DRUGMATRIX: Calcium Channel Type L, Phenylalkylamine radioligand binding (ligand: [3H] (-)-Desmethoxyverapamil (D-888)). The settings on record: Not Active = under 50% inhibition at 10 µM. The class given is cell membranes, Rattus norvegicus, Wistar, Brain, Membrane.
Assay [5] is described as follows: DRUGMATRIX: Imidazoline I2, Central radioligand binding (ligand: [3H] Idazoxan). The class given is cell membranes, Rattus norvegicus, Wistar, Cerebral cortex, Membrane. Conditions: Not Active = under 50% inhibition at 10 µM.

Structures are written as SMILES.

Vascular endothelial growth factor receptor 1, sequence (P17948 whole entry): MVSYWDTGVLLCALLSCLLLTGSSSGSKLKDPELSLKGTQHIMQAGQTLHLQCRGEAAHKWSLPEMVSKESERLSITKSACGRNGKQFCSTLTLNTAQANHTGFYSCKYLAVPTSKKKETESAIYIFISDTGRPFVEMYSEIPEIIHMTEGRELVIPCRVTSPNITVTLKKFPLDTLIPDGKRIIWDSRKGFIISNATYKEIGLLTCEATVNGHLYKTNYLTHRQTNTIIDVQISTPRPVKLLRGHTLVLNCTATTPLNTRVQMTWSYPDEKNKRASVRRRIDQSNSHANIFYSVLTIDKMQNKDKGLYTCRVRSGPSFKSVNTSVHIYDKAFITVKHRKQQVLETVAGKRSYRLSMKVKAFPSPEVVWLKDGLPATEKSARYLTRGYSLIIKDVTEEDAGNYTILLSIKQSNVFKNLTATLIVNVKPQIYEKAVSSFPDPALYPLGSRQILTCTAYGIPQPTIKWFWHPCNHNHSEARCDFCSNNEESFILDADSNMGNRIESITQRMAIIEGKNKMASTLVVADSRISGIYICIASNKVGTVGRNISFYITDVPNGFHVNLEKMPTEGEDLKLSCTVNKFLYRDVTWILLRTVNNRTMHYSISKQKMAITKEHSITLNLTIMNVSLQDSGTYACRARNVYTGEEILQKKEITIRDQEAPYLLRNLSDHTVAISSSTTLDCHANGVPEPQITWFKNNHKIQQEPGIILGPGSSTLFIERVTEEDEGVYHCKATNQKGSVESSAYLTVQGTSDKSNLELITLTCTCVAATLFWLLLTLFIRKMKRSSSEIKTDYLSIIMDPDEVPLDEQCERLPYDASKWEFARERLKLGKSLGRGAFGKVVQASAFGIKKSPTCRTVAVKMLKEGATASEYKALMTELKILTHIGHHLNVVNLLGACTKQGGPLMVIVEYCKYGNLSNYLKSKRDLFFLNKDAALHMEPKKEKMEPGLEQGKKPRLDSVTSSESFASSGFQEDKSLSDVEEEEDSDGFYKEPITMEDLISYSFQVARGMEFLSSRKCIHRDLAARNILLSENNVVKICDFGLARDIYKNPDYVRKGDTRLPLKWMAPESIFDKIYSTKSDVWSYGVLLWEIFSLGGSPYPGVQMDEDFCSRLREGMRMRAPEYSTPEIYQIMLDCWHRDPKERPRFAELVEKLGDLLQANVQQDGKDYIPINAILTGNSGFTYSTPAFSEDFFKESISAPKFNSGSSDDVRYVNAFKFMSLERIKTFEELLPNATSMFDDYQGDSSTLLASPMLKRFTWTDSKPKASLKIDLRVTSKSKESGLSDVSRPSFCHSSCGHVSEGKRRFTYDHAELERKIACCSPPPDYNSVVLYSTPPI

Turning to `CN(C)[C@@H]1C(O)=C(C(N)=O)C(=O)[C@@]2(O)C(O)=C3C(=O)c4c(O)ccc(Cl)c4[C@@](C)(O)[C@H]3C[C@@H]12` [CHLORTETRACYCLINE], the 50% inhibitory concentration (IC50) result in assay [1], in assay [2] (huvec), in assay [3] (sf9), in assay [4] and in assay [5] was “Not Active” throughout. The Ki result in assay [1], in assay [4] and in assay [5] was “Not Active” each time.

Take `CN/C(=N\CCSCc1nc[nH]c1C)NC#N` [CIMETIDINE]: the IC50 entry in assay [1], in assay [2] (huvec), in assay [3] (sf9), in assay [4] and in assay [5] was “Not Active” in each case. Also, the Ki entry in assay [1], in assay [4] and in assay [5] was “Not Active” each time.

On to `CCC(=O)O[C@]1(C(=O)CCl)[C@@H](C)C[C@H]2[C@@H]3CCC4=CC(=O)C=C[C@]4(C)[C@@]3(F)[C@@H](O)C[C@@]21C` [CLOBETASOL PROPIONATE], for which the IC50 entry in assay [1], in assay [2] (huvec), in assay [3] (sf9), in assay [4] and in assay [5] was “Not Active” in each case. For the same compound, the Ki entry in assay [1], in assay [4] and in assay [5] was “Not Active” throughout.

On to `O=C1CN=C(c2ccccc2Cl)c2cc([N+](=O)[O-])ccc2N1` [CLONAZEPAM], for which the IC50 result in assay [1], in assay [2] (huvec), in assay [3] (sf9), in assay [4] and in assay [5] was “Not Active” each time. Further, the Ki result in assay [1], in assay [4] and in assay [5] was “Not Active” throughout.

Turning to `Nc1ccn([C@@H]2O[C@H](CO)[C@@H](O)[C@@H]2O)c(=O)n1` [CYTARABINE], the IC50 result in assay [1], in assay [2] (huvec), in assay [3] (sf9), in assay [4] and in assay [5] was “Not Active” throughout. For the same compound, the Ki result in assay [1], in assay [4] and in assay [5] was “Not Active” each time.

On to `C[C@@H]1C[C@H]2[C@@H]3CCC4=CC(=O)C=C[C@]4(C)[C@@]3(F)[C@@H](O)C[C@]2(C)[C@H]1C(=O)CO` [DESOXIMETASONE], for which the IC50 entry in assay [1], in assay [2] (huvec), in assay [3] (sf9), in assay [4] and in assay [5] was “Not Active” throughout. The inhibitory constant (Ki) result in assay [1], in assay [4] and in assay [5] was “Not Active” each time.

For the compound `C[C@@H]1C[C@H]2[C@@H]3CCC4=CC(=O)C=C[C@]4(C)[C@@]3(F)[C@@H](O)C[C@]2(C)[C@@]1(O)C(=O)CO` [DEXAMETHASONE], the IC50 result in assay [1], in assay [2] (huvec), in assay [3] (sf9), in assay [4] and in assay [5] was “Not Active” each time. For the same compound, the Ki result in assay [1], in assay [4] and in assay [5] was “Not Active” each time.

Turning to `CN(C)CC[C@@H](c1ccc(Cl)cc1)c1ccccn1` [DEXCHLORPHENIRAMINE], the IC50 entry in assay [1] was “Not Active”; in assay [2] (huvec), “Not Active”; in assay [3] (read-out: IC50) it was 20.3 µM; in assay [4] (read-out: IC50) it was 3.81 µM; in assay [5] (read-out: IC50), 15.2 µM. Besides, the Ki entry in assay [1] was “Not Active”; in assay [3] it was 7.62 µM; in assay [4] (read-out: Ki), 3.7 µM; in assay [5] (read-out: Ki), 10.1 µM.

As to `C[C@@H]1CC[C@@]2(OC1)O[C@H]1[C@@H](O)[C@H]3[C@@H]4CC[C@H]5C[C@@H](O[C@@H]6O[C@H](CO)[C@H](O[C@@H]7O[C@H](CO)C(O)[C@H](O[C@@H]8OC[C@@H](O)[C@H](O)[C@H]8O)[C@H]7O[C@@H]7O[C@H](CO)[C@H](O)[C@H](O[C@@H]8O[C@H](CO)[C@@H](O)[C@H](O)[C@H]8O)[C@H]7O)[C@H](O)[C@H]6O)[C@H](O)C[C@]5(C)[C@H]4CC[C@]3(C)[C@H]1[C@@H]2C` (stereo partly specified) [DIGITONIN], the IC50 entry in assay [1] was “Not Active”; in assay [2] (read-out: IC50) it was 3.86 µM; in assay [3] (sf9) it was “Not Active”; in assay [4], “Not Active”; in assay [5] it was “Not Active”. Moreover, the Ki entry in assay [1] is “Not Active”; in assay [2] (read-out: Ki), 1 µM; in assay [4], “Not Active”; in assay [5], “Not Active”.

For `OC(CCCN1CCCCC1)(c1ccccc1)c1ccccc1` [DIPHENIDOL], the IC50 result in assay [1] was “Not Active”; in assay [2] (huvec) it was “Not Active”; in assay [3] (sf9) it was “Not Active”; in assay [4] (read-out: IC50), 4.5 µM; in assay [5], “Not Active”. Besides, the Ki entry in assay [1] is “Not Active”; in assay [4] (read-out: Ki), 4.38 µM; in assay [5] it was “Not Active”.

Take `C[C@H]1O[C@@H](n2cc(F)c(=O)[nH]c2=O)[C@H](O)[C@@H]1O` [DOXIFLURIDINE]: the concentration for half-maximal inhibition (IC50) entry in assay [1], in assay [2] (huvec), in assay [3] (sf9), in assay [4] and in assay [5] was “Not Active” throughout. In addition, the Ki result in assay [1], in assay [4] and in assay [5] was “Not Active” each time.

As to `Cn1c(=O)c2c(ncn2CC(O)CO)n(C)c1=O` (stereo unspecified) [DYPHYLLINE], the IC50 entry in assay [1], in assay [2] (huvec), in assay [3] (sf9), in assay [4] and in assay [5] was “Not Active” each time. The Ki result in assay [1], in assay [4] and in assay [5] was “Not Active” throughout.

`CC[C@H]1CN2CCc3cc(OC)c(OC)cc3[C@@H]2C[C@@H]1C[C@H]1NCCc2cc(OC)c(OC)cc21` [EMETINE]: the IC50 result was “Not Active” in assay [1]; “Not Active” in assay [2] (huvec); 0.038 µM in assay [3] (read-out: IC50); “Not Active” in assay [4]; “Not Active” in assay [5]. Further, the Ki entry is “Not Active” in assay [1], 0.014 µM in assay [3], “Not Active” in assay [4] and “Not Active” in assay [5].

With `C[C@@H](CO)NC(=O)[C@@H]1C=C2c3cccc4[nH]cc(c34)C[C@H]2N(C)C1` [ERGONOVINE], the half-maximal inhibitory concentration (IC50) entry in assay [1] was “Not Active”; in assay [2] (huvec) it was “Not Active”; in assay [3] (read-out: IC50), 1.68 µM; in assay [4], “Not Active”. For the same compound, the Ki entry in assay [1] is “Not Active”; in assay [3], 0.63 µM; in assay [4], “Not Active”; in assay [5] (read-out: Ki), 1.23 µM.

With `COC(=O)CCc1ccc(OCC(O)CNC(C)C)cc1` (stereo unspecified) [ESMOLOL], the IC50 entry in assay [1], in assay [2] (huvec), in assay [3] (sf9), in assay [4] and in assay [5] was “Not Active” each time. In addition, the Ki entry in assay [1], in assay [4] and in assay [5] was “Not Active” each time.

For the compound `CCC1(C)CC(=O)NC1=O` (stereo unspecified) [ETHOSUXIMIDE], the IC50 entry in assay [1], in assay [2] (huvec), in assay [3] (sf9), in assay [4] and in assay [5] was “Not Active” in each case. Also, the inhibitory constant (Ki) entry in assay [1], in assay [4] and in assay [5] was “Not Active” each time.

With `C#C[C@]1(OC(C)=O)CC[C@H]2[C@@H]3CCC4=C[C@@H](OC(C)=O)CC[C@@H]4[C@H]3CC[C@@]21C` [ETHYNODIOL DIACETATE], the half-maximal inhibitory concentration (IC50) entry in assay [1], in assay [2] (huvec), in assay [3] (sf9), in assay [4] and in assay [5] was “Not Active” in each case. In addition, the inhibition constant Ki result in assay [1], in assay [4] and in assay [5] was “Not Active” each time.

Regarding `COc1cc([C@@H]2c3cc4c(cc3[C@@H](O[C@@H]3O[C@@H]5CO[C@@H](C)O[C@H]5[C@H](O)[C@H]3O)[C@H]3COC(=O)[C@H]23)OCO4)cc(OC)c1O` [ETOPOSIDE], the IC50 entry in assay [1], in assay [2] (huvec), in assay [3] (sf9), in assay [4] and in assay [5] was “Not Active” in each case. Moreover, the inhibition constant (Ki) result in assay [1], in assay [4] and in assay [5] was “Not Active” in each case.

Turning to `C=CCc1ccc(O)c(OC)c1` [EUGENOL], the IC50 entry in assay [1], in assay [2] (huvec), in assay [3] (sf9), in assay [4] and in assay [5] was “Not Active” throughout. In addition, the Ki entry in assay [1], in assay [4] and in assay [5] was “Not Active” each time.

As to `CC(C(=O)O)c1cccc(Oc2ccccc2)c1` (stereo unspecified) [FENOPROFEN], the IC50 result in assay [1], in assay [2] (huvec), in assay [3] (sf9), in assay [4] and in assay [5] was “Not Active” in each case. The Ki result in assay [1], in assay [4] and in assay [5] was “Not Active” each time.

In the case of `CC(C)(C)NC(=O)[C@H]1CC[C@H]2[C@@H]3CC[C@H]4NC(=O)C=C[C@]4(C)[C@H]3CC[C@]12C` [FINASTERIDE], the concentration for half-maximal inhibition (IC50) result in assay [1], in assay [2] (huvec), in assay [3] (sf9), in assay [4] and in assay [5] was “Not Active” throughout. Also, the Ki entry in assay [1], in assay [4] and in assay [5] was “Not Active” throughout.
